Converted amounts (≈) assume the structure as drawn. The source made the active and inactive calls. The calls are words filed in the database; no cut-off is given here.
Tests used:
Candida albicans = assay: Antifungal activity against Candida albicans; type: functional
Candida tropicalis = assay: Antifungal activity against Candida tropicalis; type: functional
[1] = Antioxidant activity assessed as DPPH radical scavenging activity at 10 to 200 ug/ml; type: functional; conditions: dose 10-200 µg/ml
Escherichia coli = assay: Antibacterial activity against Escherichia coli; type: functional
Enterococcus hirae = assay: Antibacterial activity against Enterococcus hirae; type: functional
DNA = assay: Induction of Escherichia coli supercoiled pBR322 DNA cleavage assessed as increase in formation of linear form of DNA at 250 ug/ml by agarose gel electrophoresis; type: nucleic-acid assay; conditions: dose 250.0 µg/ml
Bacillus cereus = assay: Antibacterial activity against Bacillus cereus; type: functional
Pseudomonas aeruginosa = assay: Antibacterial activity against Pseudomonas aeruginosa; type: functional
Legionella pneumophila = assay: Antibacterial activity against Legionella pneumophila subsp. pneumophila; type: functional
[2] = Antioxidant activity assessed as ferrous ion chelating activity at 200 ug/ml; type: functional; conditions: dose 200.0 µg/ml
Staphylococcus aureus = assay: Antibacterial activity against Staphylococcus aureus; type: functional
[3] = Antioxidant activity assessed as ferrous ion chelating activity at 10 ug/ml; type: functional; conditions: dose 10.0 µg/ml
[4] = Antioxidant activity assessed as DPPH radical scavenging activity at 200 ug/ml relative to control; type: functional; conditions: dose 200.0 µg/ml

Row | SMILES | MIC (Candida albicans) [µg/mL] | MIC (Candida tropicalis) [µg/mL] | Activity [1] | MIC (Escherichia coli) [µg/mL] | MIC (Enterococcus hirae) [µg/mL] | Activity (DNA) | MIC (Bacillus cereus) [µg/mL] | MIC (Pseudomonas aeruginosa) [µg/mL] | MIC (Legionella pneumophila) [µg/mL] | Activity [2] [%] | MIC (Staphylococcus aureus) [µg/mL] | Activity [3] [%] | Activity [4] [%]
1 | O=C(Cn1cc(CCn2cc(C3CC3)nn2)nn1)Nc1ccc(NC(=O)Cn2cc(CCn3cc(C4CC4)nn3)nn2)cc1 | 128 (≈ 215 µM) | 64 (≈ 107 µM) | Active | 128 (≈ 215 µM) | 64 (≈ 107 µM) | Active | 64 (≈ 107 µM) | 64 (≈ 107 µM) | 32 (≈ 53.6 µM) | 42.8 | 64 (≈ 107 µM) | – | –
2 | O=C(Cn1cc(C2CCCC2)nn1)Nc1ccc(NC(=O)Cn2cc(C3CCCC3)nn2)cc1 | 64 (≈ 138 µM) | 32 (≈ 69.2 µM) | Active | 128 (≈ 277 µM) | 32 (≈ 69.2 µM) | Active | 64 (≈ 138 µM) | 64 (≈ 138 µM) | 32 (≈ 69.2 µM) | 67.1 | 64 (≈ 138 µM) | 20.6 | –
3 | CC1(C)S[C@@H]2[C@H](NC(=O)[C@H](N)c3ccccc3)C(=O)N2[C@H]1C(=O)O [AMPICILLIN] | – | – | – | 0.5 (≈ 1.43 µM) | 0.5 (≈ 1.43 µM) | – | 1 (≈ 2.86 µM) | 0.5 (≈ 1.43 µM) | 0.5 (≈ 1.43 µM) | – | 1 (≈ 2.86 µM) | – | –
4 | O=C(Cn1cc(C2CC2)nn1)Nc1ccc(NC(=O)Cn2cc(C3CC3)nn2)cc1 | 128 (≈ 315 µM) | 64 (≈ 157 µM) | Active | 64 (≈ 157 µM) | 64 (≈ 157 µM) | Active | 64 (≈ 157 µM) | 128 (≈ 315 µM) | 128 (≈ 315 µM) | 76.5 | 128 (≈ 315 µM) | – | –
5 | O=C(Cn1cc(CCc2ccccc2)nn1)Nc1ccc(NC(=O)Cn2cc(CCc3ccccc3)nn2)cc1 | 64 (≈ 120 µM) | 64 (≈ 120 µM) | Active | 128 (≈ 239 µM) | 64 (≈ 120 µM) | Active | 32 (≈ 59.9 µM) | 16 (≈ 29.9 µM) | 64 (≈ 120 µM) | 41.4 | 32 (≈ 59.9 µM) | – | –
6 | CCOC(=O)c1cn(CC(=O)Nc2ccc(NC(=O)Cn3cc(C(=O)OCC)nn3)cc2)nn1 | 64 (≈ 136 µM) | 32 (≈ 68 µM) | Active | 128 (≈ 272 µM) | 64 (≈ 136 µM) | Active | 64 (≈ 136 µM) | 64 (≈ 136 µM) | 64 (≈ 136 µM) | 46.5 | 32 (≈ 68 µM) | – | –
7 | O=C(Cn1cc(-c2ccccc2)nn1)Nc1ccc(NC(=O)Cn2cc(-c3ccccc3)nn2)cc1 | 64 (≈ 134 µM) | 32 (≈ 66.9 µM) | Active | 64 (≈ 134 µM) | 128 (≈ 267 µM) | Active | 64 (≈ 134 µM) | 64 (≈ 134 µM) | 16 (≈ 33.4 µM) | 40.1 | 64 (≈ 134 µM) | – | –
8 | OC(Cn1cncn1)(Cn1cncn1)c1ccc(F)cc1F [FLUCONAZOLE] | 0.5 (≈ 1.63 µM) | 0.5 (≈ 1.63 µM) | – | – | – | – | – | – | – | – | – | – | –
9 | CC(C)CCc1cn(CCc2cn(CC(=O)Nc3ccc(NC(=O)Cn4cc(CCn5cc(CCC(C)C)nn5)nn4)cc3)nn2)nn1 | 64 (≈ 97.4 µM) | 32 (≈ 48.7 µM) | – | 128 (≈ 195 µM) | 16 (≈ 24.4 µM) | Active | 128 (≈ 195 µM) | 32 (≈ 48.7 µM) | 16 (≈ 24.4 µM) | 44.9 | 32 (≈ 48.7 µM) | – | 21.9
10 | [N-]=[N+]=NCCc1cn(CC(=O)Nc2ccc(NC(=O)Cn3cc(CCN=[N+]=[N-])nn3)cc2)nn1 | 8 (≈ 17.2 µM) | 16 (≈ 34.4 µM) | Active | 32 (≈ 68.9 µM) | 32 (≈ 68.9 µM) | Active | 64 (≈ 138 µM) | 64 (≈ 138 µM) | 32 (≈ 68.9 µM) | 52.8 | 64 (≈ 138 µM) | – | –
11 | CCOC(=O)c1cn(CCc2cn(CC(=O)Nc3ccc(NC(=O)Cn4cc(CCn5cc(C(=O)OCC)nn5)nn4)cc3)nn2)nn1 | 128 (≈ 194 µM) | 64 (≈ 96.9 µM) | Active | 128 (≈ 194 µM) | 64 (≈ 96.9 µM) | Active | 32 (≈ 48.4 µM) | 64 (≈ 96.9 µM) | 32 (≈ 48.4 µM) | 33.5 | 32 (≈ 48.4 µM) | – | –
12 | O=C(Cn1cc(CCn2cc(CCc3ccccc3)nn2)nn1)Nc1ccc(NC(=O)Cn2cc(CCn3cc(CCc4ccccc4)nn3)nn2)cc1 | 64 (≈ 88.3 µM) | 16 (≈ 22.1 µM) | Active | 128 (≈ 177 µM) | 64 (≈ 88.3 µM) | Active | 128 (≈ 177 µM) | 64 (≈ 88.3 µM) | 64 (≈ 88.3 µM) | 17.3 | 64 (≈ 88.3 µM) | – | –
13 | CC(C)CCc1cn(CC(=O)Nc2ccc(NC(=O)Cn3cc(CCC(C)C)nn3)cc2)nn1 | 64 (≈ 137 µM) | 32 (≈ 68.6 µM) | Active | 128 (≈ 274 µM) | 32 (≈ 68.6 µM) | Active | 64 (≈ 137 µM) | 64 (≈ 137 µM) | 32 (≈ 68.6 µM) | 70.8 | 64 (≈ 137 µM) | 22 | –
14 | O=C(Cn1cc(CCn2cc(CC3CCCCC3)nn2)nn1)Nc1ccc(NC(=O)Cn2cc(CCn3cc(CC4CCCCC4)nn3)nn2)cc1 | 8 (≈ 11.3 µM) | 4 (≈ 5.64 µM) | Active | 128 (≈ 181 µM) | 16 (≈ 22.6 µM) | Active | 64 (≈ 90.3 µM) | 64 (≈ 90.3 µM) | 32 (≈ 45.1 µM) | 48.9 | 64 (≈ 90.3 µM) | – | –
15 | O=C(Cn1cc(CC2CCCCC2)nn1)Nc1ccc(NC(=O)Cn2cc(CC3CCCCC3)nn2)cc1 | 16 (≈ 30.8 µM) | 32 (≈ 61.7 µM) | Active | 4 (≈ 7.71 µM) | 8 (≈ 15.4 µM) | Active | 64 (≈ 123 µM) | 64 (≈ 123 µM) | 16 (≈ 30.8 µM) | 33.8 | 64 (≈ 123 µM) | – | –
16 | O=C(Cn1cc(CCn2cc(-c3ccccc3)nn2)nn1)Nc1ccc(NC(=O)Cn2cc(CCn3cc(-c4ccccc4)nn3)nn2)cc1 | 64 (≈ 95.7 µM) | 64 (≈ 95.7 µM) | Active | 128 (≈ 191 µM) | 16 (≈ 23.9 µM) | Active | 128 (≈ 191 µM) | 64 (≈ 95.7 µM) | 32 (≈ 47.9 µM) | 27.1 | 64 (≈ 95.7 µM) | – | –
17 | O=C(Cn1cc(CCBr)nn1)Nc1ccc(NC(=O)Cn2cc(CCBr)nn2)cc1 | 64 (≈ 118 µM) | 32 (≈ 59.2 µM) | – | 128 (≈ 237 µM) | 32 (≈ 59.2 µM) | Active | 64 (≈ 118 µM) | 64 (≈ 118 µM) | 32 (≈ 59.2 µM) | 30.4 | 64 (≈ 118 µM) | – | 30.5
18 | O=C(Cn1cc(CCn2cc(CCBr)nn2)nn1)Nc1ccc(NC(=O)Cn2cc(CCn3cc(CCBr)nn3)nn2)cc1 | 8 (≈ 11 µM) | 32 (≈ 43.8 µM) | Active | 128 (≈ 175 µM) | 32 (≈ 43.8 µM) | Active | 64 (≈ 87.6 µM) | 64 (≈ 87.6 µM) | 8 (≈ 11 µM) | 45.6 | 64 (≈ 87.6 µM) | – | –
19 | O=C(Cn1cc(CCn2cc(C3CCCC3)nn2)nn1)Nc1ccc(NC(=O)Cn2cc(CCn3cc(C4CCCC4)nn3)nn2)cc1 | 32 (≈ 49 µM) | 4 (≈ 6.13 µM) | Active | 128 (≈ 196 µM) | 4 (≈ 6.13 µM) | Active | 64 (≈ 98 µM) | 64 (≈ 98 µM) | 128 (≈ 196 µM) | 43.9 | 16 (≈ 24.5 µM) | – | –

From ChEMBL document CHEMBL5131406, “New bis- and tetrakis-1,2,3-triazole derivatives: Synthesis, DNA cleavage, molecular docking, antimicrobial, antioxidant activity and acid dissociation constants” (2022)
